Measurements taken from patent publication US20080200454A1, “CARBON-LINKED TETRAHYDRO-PYRAZOLO-PYRIDINE MODULATORS OF CATHEPSIN S” (priority 2007, published 2008).
Like-named read-outs stand apart in the source and are kept apart here.

Target: Recombinant human cathepsin S (CatS) (Homo sapiens, UniProt P25774)
Assay: Recombinant human cathepsin S (CatS) inhibition assay, fluorogenic substrate Z-Valine-Valine-Arginine-AMC;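 also: Baculovirus-expressed CatS in pH 5.0 sodium acetate buffer with DTT and NaCl, fluorescence read each minute over 20 min, inhibition derived from rate slope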

Recombinant human cathepsin S (CatS), sequence (P25774 115-331): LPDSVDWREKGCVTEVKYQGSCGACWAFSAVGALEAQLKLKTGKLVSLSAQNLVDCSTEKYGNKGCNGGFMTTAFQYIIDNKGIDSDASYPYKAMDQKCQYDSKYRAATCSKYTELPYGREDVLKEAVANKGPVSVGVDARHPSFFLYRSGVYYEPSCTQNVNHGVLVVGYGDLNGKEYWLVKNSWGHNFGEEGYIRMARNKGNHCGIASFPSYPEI

Row | SMILES | IC50 [nM] | IC50 (CatS IC50) [nM]
1 | NC(=O)N1CCc2c(c(-c3ccc(Cl)c(C#Cc4ccc(CNCc5ccc(Cl)cc5)cc4)c3)nn2CCCN2CCSCC2)C1 [Example 160, 3-(4-Chloro-3-{[4-({[(4-chlorophenyl)methyl]amino}methyl)phenyl]ethynyl}phenyl)-1-(3-thiomorpholin-4-ylpropyl)-1,4,6,7-tetrahydro-5H-pyrazolo[4,3-c]pyridine-5-carboxamide] | 60 | 
2 | NC(=O)N1CCc2c(c(-c3ccc(Cl)c(C#Cc4ccc(COCc5cccnc5)cc4)c3)nn2CCCN2CCSCC2)C1 [Example 161, 3-{4-Chloro-3-[(4-{[(pyridin-3-ylmethyl)oxy]methyl]phenyl)ethynyl]phenyl}-1-(3-thiomorpholin-4-ylpropyl)-1,4,6,7-tetrahydro-5H-pyrazolo[4,3-c]pyridine-5-carboxamide] | 70 | 
3 | NC(=O)N1CCc2c(c(-c3ccc(Cl)c(C#Cc4ccc(C(=O)NCc5cccnc5)cc4)c3)nn2CCCN2CCSCC2)C1 [Example 162, 3-{4-Chloro-3-[(4-{[(pyridin-3-ylmethyl)amino]carbonyl}phenyl)ethynyl]phenyl}-1-(3-thiomorpholin-4-ylpropyl)-1,4,6,7-tetrahydro-5H-pyrazolo[4,3-c]pyridine-5-carboxamide] | 90 | 
4 | NC(=O)N1CCc2c(c(-c3ccc(Cl)c(C#Cc4ccc(C(=O)N5CCCC5)cc4)c3)nn2CCCN2CCSCC2)C1 [Example 164, 3-(4-Chloro-3-{[4-(pyrrolidin-1-ylcarbonyl)phenyl]ethynyl}phenyl)-1-(3-thiomorpholin-4-ylpropyl)-1,4,6,7-tetrahydro-5H-pyrazolo[4,3-c]pyridine-5-carboxamide] |  | 730
5 | NC(=O)N1CCc2c(c(-c3ccc(Cl)c(C#Cc4ccc(CN5CCC(N6CCCC6=O)CC5)cc4)c3)nn2CCCN2CCSCC2)C1 [Example 165, 3-{4-Chloro-3-[(4-{[4-(2-oxopyrrolidin-1-yl)piperidin-1-yl]methyl}phenyl)ethynyl]phenyl}-1-(3-thiomorpholin-4-ylpropyl)-1,4,6,7-tetrahydro-5H-pyrazolo[4,3-c]pyridine-5-carboxamide] | 830 | 
6 | Clc1ccc(CNCc2ccc(C#Cc3cc(-c4nn(CCCN5CCOCC5)c5c4CNCC5)ccc3Cl)cc2)cc1 [Example 166, 1-[4-({2-Chloro-5-[1-(3-morpholin-4-ylpropyl)-4,5,6,7-tetrahydro-1H-pyrazolo[4,3-c]pyridin-3-yl]phenyl}ethynyl)phenyl]-N-[(4-chlorophenyl)methyl]methanamine] | 2520 | 
7 | CCNCc1cc(C#Cc2cc(-c3nn(CCCN4CCCCC4)c4c3CN(C(N)=O)CC4)ccc2Cl)ccc1Cl [Example 167, 3-[4-Chloro-3-({4-chloro-3-[(ethylamino)methyl]phenyl}ethynyl)phenyl]-1-(3-piperidin-1-ylpropyl)-1,4,6,7-tetrahydro-5H-pyrazolo[4,3-c]pyridine-5-carboxamide] | 30 | 
8 | C[C@H]1COCCN1CCCn1nc(-c2ccc(Cl)c(C#Cc3ccc(Cl)c(C(=O)NCCN4CCOCC4)c3)c2)c2c1CCN(C(=O)C(N)=O)C2 [Example 168, 5-{[5-(5-[Amino(oxo)acetyl]-1-{3-[(3S)-3-methylmorpholin-4-yl]propyl}-4,5,6,7-tetrahydro-1H-pyrazolo[4,3-c]pyridin-3-yl)-2-chlorophenyl]ethynyl}-2-chloro-N-(2-morpholin-4-ylethyl)benzamide] |  | 30
9 | C[C@H]1COCCN1CCCn1nc(-c2ccc(Cl)c(C#Cc3ccc(C(=O)NCCN4CCOCC4)cc3)c2)c2c1CCN(C(=O)C(N)=O)C2 [Example 169, 4-{[5-(5-[Amino(oxo)acetyl]-1-{3-[(3S)-3-methylmorpholin-4-yl]propyl}-4,5,6,7-tetrahydro-1H-pyrazolo[4,3-c]pyridin-3-yl)-2-chlorophenyl]ethynyl}-N-(2-morpholin-4-ylethyl)benzamide] |  | 50
10 | NC(=O)N1CCc2c(c(-c3ccc(Cl)c(C#Cc4ccc(CNCc5ccc(Cl)cc5)cc4)c3)nn2CCCN2C[C@H]3COC[C@H]3C2)C1 [Example 170, 3-[4-Chloro-3-[(4-{[(4-chlorobenzyl)amino]methyl]phenyl)ethynyl]phenyl}-1-{3-[(3aR,6aS)-tetrahydro-1H-furo[3,4-c]pyrrol-5(3H)-yl]propyl}-1,4,6,7-tetrahydro-5H-pyrazolo[4,3-c]pyridine-5-carboxamide] |  | 50
11 | NC(=O)N1CCc2c(c(-c3ccc(Cl)c(C#Cc4cccc(CNCc5ccc(Cl)cc5)c4)c3)nn2CCCN2CCSCC2)C1 [Example 171, 3-(4-Chloro-3-{[3-({[(4-chlorophenyl)methyl]amino}methyl)phenyl]ethynyl}phenyl)-1-(3-thiomorpholin-4-ylpropyl)-1,4,6,7-tetrahydro-5H-pyrazolo[4,3-c]pyridine-5-carboxamide] |  | 200
12 | O=C(CO)N1CCc2c(c(-c3ccc(Cl)c(C#Cc4ccc(CNCc5ccc(Cl)cc5)cc4)c3)nn2CCCN2CCN(c3ccccc3)CC2)C1 [Example 172, 2-{3-(4-Chloro-3-{[4-({[(4-chlorophenyl)methyl]amino}methyl)phenyl]ethynyl}phenyl)-1-[3-(4-phenylpiperazin-1-yl)propyl]-1,4,6,7-tetrahydro-5H-pyrazolo[4,3-c]pyridin-5-yl}-2-oxoethanol] |  | 30
13 | Cc1ccc(CNCc2ccc(C#Cc3cc(-c4nn(CCCN5CCSCC5)c5c4CN(C(N)=O)CC5)ccc3Cl)cc2)cc1 [Example 173, 3-(4-Chloro-3-{[4-({[(4-methylphenyl)methyl]amino}methyl)phenyl]ethynyl}phenyl)-1-(3-thiomorpholin-4-ylpropyl)-1,4,6,7-tetrahydro-5H-pyrazolo[4,3-c]pyridine-5-carboxamide] |  | 120
14 | CC(C)Oc1ccc(CNCc2ccc(C#Cc3cc(-c4nn(CCCN5CCSCC5)c5c4CN(C(N)=O)CC5)ccc3Cl)cc2)cc1 [Example 174, 3-{4-Chloro-3-[(4-{[({4-[(1-methylethyl)oxy]phenyl}methyl)amino]methyl}phenyl)ethynyl]phenyl}-1-(3-thiomorpholin-4-ylpropyl)-1,4,6,7-tetrahydro-5H-pyrazolo[4,3-c]pyridine-5-carboxamide] |  | 270
15 | CN(C)c1ccc(CNCc2ccc(C#Cc3cc(-c4nn(CCCN5CCSCC5)c5c4CN(C(N)=O)CC5)ccc3Cl)cc2)cc1 [Example 175, 3-[4-Chloro-3-({4-[({[4-(dimethylamino)phenyl]methyl}amino)methyl]phenyl}ethynyl)phenyl]-1-(3-thiomorpholin-4-ylpropyl)-1,4,6,7-tetrahydro-5H-pyrazolo[4,3-c]pyridine-5-carboxamide] |  | 190
16 | NC(=O)N1CCc2c(c(-c3ccc(Cl)c(C#Cc4ccc(CNCc5ccc(OC(F)F)cc5)cc4)c3)nn2CCCN2CCSCC2)C1 [Example 176] |  | 230
17 | CS(=O)(=O)N1CCc2c(c(-c3ccc(Cl)c(C#Cc4ccc(CNCc5ccc(Cl)cc5)cc4)c3)nn2CCCN2CCC(c3ccccn3)CC2)C1 [Example 177, 1-{4-[(2-Chloro-5-{5-(methylsulfonyl)-1-[3-(4-pyridin-2-ylpiperidin-1-yl)propyl]-4,5,6,7-tetrahydro-1H-pyrazolo[4,3-c]pyridin-3-yl}phenyl)ethynyl]phenyl}-N-[(4-chlorophenyl)methyl]methanamine] | 10 | 
18 | CS(=O)(=O)N1CCc2c(c(-c3ccc(Cl)c(C#Cc4ccc(CNCc5ccc(Cl)cc5)cc4)c3)nn2CCCN2CCC(c3ccccc3)CC2)C1 [Example 178, 1-{4-[(2-Chloro-5-{5-(methylsulfonyl)-1-[3-(4-phenylpiperidin-1-yl)propyl]-4,5,6,7-tetrahydro-1H-pyrazolo[4,3-c]pyridin-3-yl}phenyl)ethynyl]phenyl}-N-[(4-chlorophenyl)methyl]methanamine] | 10 | 
19 | CS(=O)(=O)N1CCc2c(c(-c3ccc(Cl)c(C#Cc4ccc(CNCc5ccc(Cl)cc5)cc4)c3)nn2CCCN2CCN(c3ccccn3)CC2)C1 [Example 179, 1-{4-[(2-Chloro-5-{5-(methylsulfonyl)-1-[3-(4-pyridin-2-ylpiperazin-1-yl)propyl]-4,5,6,7-tetrahydro-1H-pyrazolo[4,3-c]pyridin-3-yl}phenyl)ethynyl]phenyl}-N-[(4-chlorophenyl)methyl]methanamine] | 20 | 
20 | CS(=O)(=O)N1CCc2c(c(-c3ccc(Cl)c(C#Cc4ccc(CNCc5ccc(Cl)cc5)cc4)c3)nn2CCCN2CCN(c3ccccc3)CC2)C1 [Example 180, 1-{4-[(2-Chloro-5-{5-(methylsulfonyl)-1-[3-(4-phenylpiperazin-1-yl)propyl]-4,5,6,7-tetrahydro-1H-pyrazolo[4,3-c]pyridin-3-yl}phenyl)ethynyl]phenyl}-N-[(4-chlorophenyl)methyl]methanamine] | 20 | 
21 | CS(=O)(=O)N1CCc2c(c(-c3ccc(Cl)c(C#Cc4ccc(CNCc5ccc(Cl)cc5)cc4)c3)nn2CCCN2CCCCC2)C1 [Example 181, 1-[4-({2-Chloro-5-[5-(methylsulfonyl)-1-(3-piperidin-1-ylpropyl)-4,5,6,7-tetrahydro-1H-pyrazolo[4,3-c]pyridin-3-yl]phenyl}ethynyl)phenyl]-N-[(4-chlorophenyl)methyl]methanamine] | 60 | 
22 | C[C@H]1COCCN1CCCn1nc(-c2ccc(Cl)c(C#Cc3ccc(CNCc4ccc(Cl)cc4)cc3)c2)c2c1CCN(S(C)(=O)=O)C2 [Example 182, 1-[4-({2-Chloro-5-[1-{3-[(3S)-3-methylmorpholin-4-yl]propyl}-5-(methylsulfonyl)-4,5,6,7-tetrahydro-1H-pyrazolo[4,3-c]pyridin-3-yl]phenyl}ethynyl)phenyl]-N-[(4-chlorophenyl)methyl]methanamine] |  | 80
23 | CS(=O)(=O)N1CCc2c(c(-c3ccc(Cl)c(C#Cc4ccc(CNCc5ccc(Cl)cc5)cc4)c3)nn2CCCN2CCSCC2)C1 [Example 183, 1-[4-({2-Chloro-5-[5-(methylsulfonyl)-1-(3-thiomorpholin-4-ylpropyl)-4,5,6,7-tetrahydro-1H-pyrazolo[4,3-c]pyridin-3-yl]phenyl}ethynyl)phenyl]-N-[(4-chlorophenyl)methyl]methanamine] |  | 80
24 | CS(=O)(=O)N1CCc2c(c(-c3ccc(Cl)c(C#Cc4cccc(C=O)c4)c3)nn2CCCN2CCOCC2)C1 [Example 184, 3-({2-Chloro-5-[5-(methylsulfonyl)-1-(3-morpholin-4-ylpropyl)-4,5,6,7-tetrahydro-1H-pyrazolo[4,3-c]pyridin-3-yl]phenyl}ethynyl)benzaldehyde] |  | 320
